Entries after “also recorded” stand apart in the source; their conditions may differ. Where two headings read alike, the source gives them in different places.
Assays:
[1] = target: CDK7/cyclin H (Homo sapiens, UniProt P50613); test: CDK 7 and 9 assay (CTD peptide substrate); format: biochemical; conditions: in-house kinase assays; read-out: Average IC50 CDK7H
Protocol: (§1) Kinase activity was investigated by measuring the incorporation of radioactive phosphate from ATP into appropriate polypeptide substrates. Recombinant protein kinases and kinase complexes were produced or obtained commercially. Assays were performed using 96-well plates and appropriate assay buffers (typically 25 mM β-glycerophosphate, 20 mM MOPS, 5 mM EGTA, 1 mM DTT, 1 mM […], pH 7.4), into which were added 2-4 μg of active enzyme with appropriate substrates. The reactions were initiated by addition of Mg/ATP mix (15 mM MgCl2+100 μM ATP with 30-50 kBq per well of [γ-^32P]-ATP) and mixtures incubated as required at 30° C. Reactions were stopped on ice, followed by filtration through p81 filterplates or GF/C filterplates (Whatman Polyfiltronics, Kent, UK). After washing 3 times with 75 mM aq orthophosphoric acid, plates were dried, scintillant added and incorporated radioactivity measured in a scintillation counter (TopCount, Packard Instruments, Pangbourne, Berks, UK). Compounds for kinase assay were made up as 10 mM stocks in DMSO and diluted into 10% DMSO in assay buffer.
(§2) The reaction was stopped by placing the plate on ice for 2 min. Avidin (50 μg) was added to each well, and the plate was incubated at room temp for 30 min. The samples were transferred to a 96-well P81 filter plate, and washed (4×200 μL per well) with 75 mM phosphoric acid. Microscint 40 scintillation liquid (50 μL) was added to each well, and the amount of ^32P incorporation for each sample was measured using a Packard Topcount microplate scintillation counter.

[2] = test system: HCT116 cells; conditions: cited from earlier work
[3] = target: T1, AurA (Homo sapiens, UniProt O14965); test: In-house kinase assay (32P incorporation); format: biochemical; conditions: in-house kinase assays
T1 sequence (O14965 1-403): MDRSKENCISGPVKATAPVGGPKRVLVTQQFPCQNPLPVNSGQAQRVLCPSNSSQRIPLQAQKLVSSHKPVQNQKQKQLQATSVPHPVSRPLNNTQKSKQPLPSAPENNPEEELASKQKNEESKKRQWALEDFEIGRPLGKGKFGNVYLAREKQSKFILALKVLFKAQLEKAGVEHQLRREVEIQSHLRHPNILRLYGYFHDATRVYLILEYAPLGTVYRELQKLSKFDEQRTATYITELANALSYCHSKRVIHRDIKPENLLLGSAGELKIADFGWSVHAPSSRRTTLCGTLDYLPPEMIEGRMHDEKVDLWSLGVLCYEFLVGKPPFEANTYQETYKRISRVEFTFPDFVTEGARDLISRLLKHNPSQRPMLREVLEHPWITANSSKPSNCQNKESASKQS
Protocol: as §1

[4] = target: AurB (Homo sapiens, UniProt Q96GD4); test: In-house kinase assay (32P incorporation); format: biochemical; conditions: in-house kinase assays
Protocol: as §1

[5] = target: CDK1B (Homo sapiens, UniProt P06493); test: In-house kinase assay (32P incorporation); format: biochemical; conditions: in-house kinase assays
Protocol: as §1

[6] = target: CDK2A (Homo sapiens, UniProt P24941); test: In-house kinase assay (32P incorporation); format: biochemical; conditions: in-house kinase assays
Protocol: as §1

[7] = target: CDK2E (Homo sapiens, UniProt P24941); test: In-house kinase assay (32P incorporation); format: biochemical; conditions: in-house kinase assays
Protocol: as §1

[8] = target: CDK4D1 (Homo sapiens, UniProt P11802); test: In-house kinase assay (32P incorporation); format: biochemical; conditions: in-house kinase assays
Protocol: as §1

[9] = target: CDK6D3 (Homo sapiens, UniProt Q00534); test: In-house kinase assay (32P incorporation); format: biochemical; conditions: in-house kinase assays
Protocol: as §1

[10] = target: CDK9/cyclin T1 (Homo sapiens, UniProt P50750); test: CDK 7 and 9 assay (CTD peptide substrate); format: biochemical; conditions: in-house kinase assays; read-out: Average IC50 CDK9T1
Protocol: as §1, §2

[11] = test system: tumour cell panels; test: In-house 72 hour cytotoxicity assays on tumour cell panels; format: cell-based
[12] = test system: stimulated PBMCs; test: T cell proliferation assay (BrdU ELISA in stimulated PBMCs); format: cell-based
Protocol: PBMCs were seeded in 96 well plates at 1×10^5 cells/well, in 50 μL per well culture medium. […] All stimulants and compounds were made up to 4× final concentration in tissue culture medium and 25 μL of each drug and stimulant was then added to wells, for a final volume of 100 μL/well. For unstimulated controls, 25 μL tissue culture medium was added to wells instead of stimulant and for untreated cells, 25 μL/well tissue culture medium containing equal volume DMSO (0.1% final) was added. Three adjacent wells were treated for each stimulation/treatment condition and the mean value calculated for analysis.
In addition, PBMCs were stimulated with ConA (Concanavalin A, Sigma C5275) at concentrations ranging from 0.5 μg/mL to 100 μg/mL to identify its stimulatory effect and optimal concentration.
Cells were labelled with BrdU for two hours prior to harvesting. Plates were then centrifuged for 10 minutes at 300 g (RT), supernatant removed from wells by pipetting and cells dried for 1 hour at 60° C. FixDenat solution was added to plates (100 μL/well) and incubated for 30 minutes, then flicked to remove and anti-BrdU-POD solution added to plates (100 μL/well) and incubated for 90 minutes.

[13] = rounded IC50 value used for ease of calculation in PBMC assays, read-out: IC50 Used
[14] = Example 3, PHA stimulated PBMCs, compounds at IC50 to 4×IC50, 48 hours after stimulation
[15] = Example 3, PMA/I stimulated PBMCs, all concentrations
[16] = Example 4, PHA or ConA stimulated PBMCs, 0.25×IC50 to 4×IC50, 48 and 72 hours

Chain of CDK9/cyclin T1 (P50750 whole entry): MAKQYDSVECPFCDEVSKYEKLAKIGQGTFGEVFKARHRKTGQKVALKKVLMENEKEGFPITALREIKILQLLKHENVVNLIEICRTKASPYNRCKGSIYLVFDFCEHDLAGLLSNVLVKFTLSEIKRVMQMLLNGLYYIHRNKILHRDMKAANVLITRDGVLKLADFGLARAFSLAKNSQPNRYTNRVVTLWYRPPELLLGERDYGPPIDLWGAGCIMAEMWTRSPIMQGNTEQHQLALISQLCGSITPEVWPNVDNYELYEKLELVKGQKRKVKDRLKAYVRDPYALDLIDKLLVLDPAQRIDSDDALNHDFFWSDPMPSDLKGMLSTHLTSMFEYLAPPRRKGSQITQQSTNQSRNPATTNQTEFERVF
Chain of CDK9/cyclin T1 (O60563 whole entry partner): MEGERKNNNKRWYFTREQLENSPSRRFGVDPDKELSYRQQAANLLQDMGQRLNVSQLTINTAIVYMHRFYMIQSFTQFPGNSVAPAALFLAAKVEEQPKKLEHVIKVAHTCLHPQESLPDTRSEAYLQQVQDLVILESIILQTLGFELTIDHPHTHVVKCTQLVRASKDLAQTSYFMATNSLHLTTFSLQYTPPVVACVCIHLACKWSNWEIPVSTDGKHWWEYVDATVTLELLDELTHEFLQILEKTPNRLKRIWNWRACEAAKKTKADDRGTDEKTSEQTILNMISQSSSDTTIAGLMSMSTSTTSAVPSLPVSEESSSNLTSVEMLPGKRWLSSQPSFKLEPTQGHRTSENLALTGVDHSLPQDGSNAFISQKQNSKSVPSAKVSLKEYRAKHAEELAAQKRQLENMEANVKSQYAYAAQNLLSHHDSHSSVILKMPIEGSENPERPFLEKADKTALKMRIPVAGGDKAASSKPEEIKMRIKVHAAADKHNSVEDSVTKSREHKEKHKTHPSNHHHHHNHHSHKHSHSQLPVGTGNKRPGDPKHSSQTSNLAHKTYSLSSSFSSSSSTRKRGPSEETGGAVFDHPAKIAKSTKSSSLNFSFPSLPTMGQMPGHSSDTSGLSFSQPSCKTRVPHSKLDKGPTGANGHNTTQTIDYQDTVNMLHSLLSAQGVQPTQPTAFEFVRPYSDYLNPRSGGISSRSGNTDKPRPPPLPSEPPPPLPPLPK
Chain of CDK7/cyclin H (P50613 whole entry): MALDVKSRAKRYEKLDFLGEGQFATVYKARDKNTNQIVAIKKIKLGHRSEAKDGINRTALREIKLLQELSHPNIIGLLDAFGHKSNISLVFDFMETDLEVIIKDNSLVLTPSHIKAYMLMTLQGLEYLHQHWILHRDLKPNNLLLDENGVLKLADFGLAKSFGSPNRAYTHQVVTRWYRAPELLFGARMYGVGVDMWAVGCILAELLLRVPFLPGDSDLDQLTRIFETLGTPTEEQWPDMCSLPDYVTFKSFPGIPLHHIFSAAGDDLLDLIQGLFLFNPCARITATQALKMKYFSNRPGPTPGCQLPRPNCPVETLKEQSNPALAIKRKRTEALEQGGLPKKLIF
Chain of CDK7/cyclin H (P51946 whole entry partner): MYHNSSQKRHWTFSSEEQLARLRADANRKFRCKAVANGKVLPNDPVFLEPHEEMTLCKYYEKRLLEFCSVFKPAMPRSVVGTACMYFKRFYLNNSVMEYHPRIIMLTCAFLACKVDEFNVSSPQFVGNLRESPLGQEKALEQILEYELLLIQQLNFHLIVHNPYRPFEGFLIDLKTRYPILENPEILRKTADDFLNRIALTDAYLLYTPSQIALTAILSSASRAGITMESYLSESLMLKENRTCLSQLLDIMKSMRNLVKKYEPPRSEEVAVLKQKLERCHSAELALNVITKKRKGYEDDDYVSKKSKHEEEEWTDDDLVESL
Chain of AurB (Q96GD4 whole entry): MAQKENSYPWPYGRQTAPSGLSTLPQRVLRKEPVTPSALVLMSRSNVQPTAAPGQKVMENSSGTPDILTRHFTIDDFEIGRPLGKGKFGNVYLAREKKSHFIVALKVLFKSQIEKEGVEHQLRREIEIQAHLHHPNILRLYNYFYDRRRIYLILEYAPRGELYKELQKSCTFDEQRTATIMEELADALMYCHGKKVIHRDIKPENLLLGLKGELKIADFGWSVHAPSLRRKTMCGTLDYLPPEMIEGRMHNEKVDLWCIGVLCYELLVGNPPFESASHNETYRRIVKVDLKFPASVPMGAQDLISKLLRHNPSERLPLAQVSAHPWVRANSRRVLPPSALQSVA
Chain of CDK4D1 (P11802 whole entry): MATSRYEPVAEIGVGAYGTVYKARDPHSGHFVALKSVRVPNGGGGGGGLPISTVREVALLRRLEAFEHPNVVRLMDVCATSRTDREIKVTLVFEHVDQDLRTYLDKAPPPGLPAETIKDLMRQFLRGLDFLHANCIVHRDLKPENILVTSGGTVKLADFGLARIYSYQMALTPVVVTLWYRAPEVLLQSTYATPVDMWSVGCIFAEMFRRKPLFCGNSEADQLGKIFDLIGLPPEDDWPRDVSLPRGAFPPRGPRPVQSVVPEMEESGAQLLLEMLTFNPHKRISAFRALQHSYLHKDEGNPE
Chain of CDK4D1 (P24385 whole entry partner): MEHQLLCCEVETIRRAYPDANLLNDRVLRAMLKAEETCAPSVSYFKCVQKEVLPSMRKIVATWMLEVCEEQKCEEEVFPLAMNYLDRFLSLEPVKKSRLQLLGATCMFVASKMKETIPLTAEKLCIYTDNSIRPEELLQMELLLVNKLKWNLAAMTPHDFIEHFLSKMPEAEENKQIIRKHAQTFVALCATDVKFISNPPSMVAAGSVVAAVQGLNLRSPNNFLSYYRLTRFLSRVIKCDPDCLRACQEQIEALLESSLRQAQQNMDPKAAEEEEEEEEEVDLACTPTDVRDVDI
Chain of CDK1B (P06493 whole entry): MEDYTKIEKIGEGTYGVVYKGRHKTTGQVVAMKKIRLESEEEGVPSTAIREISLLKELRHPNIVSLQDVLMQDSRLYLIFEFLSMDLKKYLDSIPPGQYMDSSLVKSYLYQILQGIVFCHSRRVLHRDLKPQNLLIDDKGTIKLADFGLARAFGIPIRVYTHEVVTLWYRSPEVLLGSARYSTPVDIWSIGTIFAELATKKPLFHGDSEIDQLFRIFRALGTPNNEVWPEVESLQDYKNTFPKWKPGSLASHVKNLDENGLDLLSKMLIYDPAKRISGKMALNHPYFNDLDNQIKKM
Chain of CDK1B (P14635 whole entry partner): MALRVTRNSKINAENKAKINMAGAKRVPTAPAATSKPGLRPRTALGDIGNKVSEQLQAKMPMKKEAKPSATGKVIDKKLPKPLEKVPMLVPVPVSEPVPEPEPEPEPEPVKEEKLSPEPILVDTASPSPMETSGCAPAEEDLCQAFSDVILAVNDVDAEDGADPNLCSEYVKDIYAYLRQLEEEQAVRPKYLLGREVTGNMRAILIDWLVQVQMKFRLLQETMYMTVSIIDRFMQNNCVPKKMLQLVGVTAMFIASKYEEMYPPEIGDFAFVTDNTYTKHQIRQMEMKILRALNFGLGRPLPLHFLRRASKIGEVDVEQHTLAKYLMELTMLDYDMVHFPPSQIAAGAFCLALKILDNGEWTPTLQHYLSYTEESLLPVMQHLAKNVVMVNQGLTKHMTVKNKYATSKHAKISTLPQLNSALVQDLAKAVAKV
Chain of CDK6D3 (Q00534 whole entry): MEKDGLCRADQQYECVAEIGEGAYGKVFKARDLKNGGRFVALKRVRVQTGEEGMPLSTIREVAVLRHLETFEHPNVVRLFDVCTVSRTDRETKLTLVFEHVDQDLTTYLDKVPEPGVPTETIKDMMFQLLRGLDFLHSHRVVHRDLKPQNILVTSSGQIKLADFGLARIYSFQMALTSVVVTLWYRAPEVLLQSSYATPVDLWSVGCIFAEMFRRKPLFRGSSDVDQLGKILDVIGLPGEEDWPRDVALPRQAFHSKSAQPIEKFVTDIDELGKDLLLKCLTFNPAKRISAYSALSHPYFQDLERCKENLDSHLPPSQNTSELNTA
Chain of CDK6D3 (P30281 whole entry partner): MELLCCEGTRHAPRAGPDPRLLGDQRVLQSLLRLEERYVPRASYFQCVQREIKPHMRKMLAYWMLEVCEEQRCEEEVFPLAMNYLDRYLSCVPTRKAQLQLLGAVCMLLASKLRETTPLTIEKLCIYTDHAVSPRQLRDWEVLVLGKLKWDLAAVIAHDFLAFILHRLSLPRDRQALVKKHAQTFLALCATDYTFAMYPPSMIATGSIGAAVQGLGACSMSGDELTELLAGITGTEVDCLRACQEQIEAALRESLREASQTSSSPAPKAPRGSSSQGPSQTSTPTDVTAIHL

Row | Structure (SMILES) | IC50 [1] | IC50 ([2]; published for HCT116 cells, Raynaud et al. 2005, no in-house data, read-out: IC50 Average) | IC50 ([2]; rounded from published HCT116 IC50, used in PBMC assays, read-out: IC50 Used) | IC50 [3] | IC50 [4] | IC50 [5] | IC50 [6] | IC50 [7] | IC50 [8] | IC50 [9] | IC50 [10] | IC50 ([11]; 72 h, read-out: IC50 Average) | IC50 [11, 13] | Concentration reaching complete inhibition of proliferation activity ([12]; Example 4, PHA or ConA stimulated PBMCs) | BrdU incorporation [12, 14] | BrdU incorporation [12, 15] | BrdU incorporation [12, 16]
1 | Cn1cnc2c(NCc3ccccc3)nc(NCCO)nc21 [Compound 3] | > 20000 nM | 56000 nM | 50000 nM | – | – | – | – | – | – | – | – | – | – | – | – | – | –
2 | CC[C@@H](Nc1nc(NCc2cccnc2)c2ncn(C(C)C)c2n1)C(C)(C)O [Compound 5] | 27000 nM | – | – | 51 nM | 23 nM | 15900 nM | 1240 nM | 931 nM | 2750 nM | 1940 nM | 2710 nM | 1430 nM | 1500 nM | – | – | – | –
3 | Cc1c(-c2ccnc(Nc3ccc(N4CCNCC4)cc3)n2)sc(=O)n1C [Compound 7] | 983 nM | – | – | > 10000 nM | > 10000 nM | 4950 nM | 223 nM | 71 nM | 7630 nM | 6270 nM | 195 nM | 5310 nM | 5000 nM | 0.25 ×IC50 | – | – | –
4 | CCNc1nc(C)c(-c2ccnc(Nc3ccc(CNC(C)=O)cc3)n2)s1 [Compound 9] | 147 nM | – | – | 94 nM | 21 nM | 2000 nM | 1670 nM | 204 nM | 118 nM | 110 nM | 97 nM | 250 nM | 250 nM | – | clearly concentration dependent | higher than in PHA stimulated cells | concentration dependency was clearly seen; also recorded: needed at higher concentrations than the other compounds
5 | CCNc1nc(C)c(-c2ccnc(Nc3ccc(S(C)(=O)=O)cc3)n2)s1 [Compound 10] | 455 nM | – | – | > 10000 nM | > 100000 nM | 1490 nM | 115 nM | 13 nM | 5100 nM | 6400 nM | 81 nM | 753 nM | 1000 nM | – | clearly concentration dependent | higher than in PHA stimulated cells | concentration dependency was clearly seen; also recorded: needed at higher concentrations than the other compounds
